Laboratory results taken from patent US8012471B2, “Screening and treatment methods using IGS5 enzymes of the metalloprotease family” (Abbott Healthcare Products B.V., priority 1999, dated 2011).
Entries after “also recorded” stand apart in the source; their conditions may differ. Marks after values point to notes of the source that are not given here. Starred links: 1 amine or outer side, 2 acyl side, 3 side chain; linkers in the order of their positions; H or OH if unused. Non-standard residues stand in square brackets, D forms with d. No end group written: not given here. *: point of attachment. Dpa = quench label, O=C([C@H](CNc1ccc([N+](=O)[O-])cc1[N+](=O)[O-])N[*:1])[*:2]; Mca = COc1ccc2c(CC(=O)*)cc(=O)oc2c1

Assays:
[1] = target: T1, IGS5 polypeptide (His6-tagged IGS5 ectodomain) (Homo sapiens, UniProt Q495T6, V306M); experiment: Hydrolysis of vasoactive peptides and PACAP(1-27) by IGS5 polypeptide (HPLC); assay type: biochemical; conditions: for % Hydrolysis by IGS5 Polypeptide: 0.5 μM substrate, 2 h, 37° C.
T1 construct: made in house; host or cells: Spodoptera frugiperda Sf9 (baculovirus IGBV73)
T1 sequence (Q495T6 with tags, fused parts or gaps V306M): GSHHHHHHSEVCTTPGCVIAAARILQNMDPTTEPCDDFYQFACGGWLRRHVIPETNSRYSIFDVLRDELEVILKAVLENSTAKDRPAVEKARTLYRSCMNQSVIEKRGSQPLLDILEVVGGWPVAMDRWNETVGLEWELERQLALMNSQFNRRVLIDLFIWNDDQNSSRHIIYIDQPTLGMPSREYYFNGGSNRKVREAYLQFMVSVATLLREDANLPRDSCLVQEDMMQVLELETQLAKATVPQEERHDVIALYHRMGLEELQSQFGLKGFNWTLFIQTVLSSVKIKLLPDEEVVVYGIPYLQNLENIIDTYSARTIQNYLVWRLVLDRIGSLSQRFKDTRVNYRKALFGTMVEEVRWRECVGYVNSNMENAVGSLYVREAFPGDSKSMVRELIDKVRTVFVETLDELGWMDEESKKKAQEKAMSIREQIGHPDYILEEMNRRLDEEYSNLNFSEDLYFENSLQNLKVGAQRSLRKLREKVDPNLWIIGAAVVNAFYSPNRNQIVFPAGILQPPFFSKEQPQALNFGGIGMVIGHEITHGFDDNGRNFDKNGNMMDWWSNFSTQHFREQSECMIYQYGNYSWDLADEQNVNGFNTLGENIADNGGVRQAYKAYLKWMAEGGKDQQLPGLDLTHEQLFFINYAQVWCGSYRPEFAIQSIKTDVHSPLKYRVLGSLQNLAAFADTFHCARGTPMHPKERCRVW
Method: (§1) The enzymatic activity of IGS5 polypeptides of the invention was tested with regard to the metabolism of biologically active peptides. In particular it was tested whether these IGS5 polypeptides may act on a variety of vasoactive peptides known in the state of the art e.g. such like atrial natriuretic peptide (ANP), bradykinin, big endothelin (Big ET-1), endothelin (ET-1), substance P and angiotensin-1. In the context of the present invention in particular it was tested whether the IGS5 ectodomain, which is a novel human metalloprotease, hydrolyzes said vasoactive peptides. For comparison the assay was also performed for a known member of the metalloprotease family which was described earlier as soluble secreted endopeptidase (SEP) by Ikeda, Emoto et al. (J. Biol. Chem., Vol. 274 (1999): pp. 32469-32477). Furthermore, it was tested whether the activity of IGS5 to convert a Big-ET-1 analogue (the so-called 17 aa Big-ET) may be inhibited by reference compounds that are used to determine the inhibition properties with regard to enzymes having ECE and/or NEP-characteristics. […] It was then checked whether the activity of IGS5 to convert PACAP(1-27) may be inhibited by a compound known to be a IGS5 inhibitor. The compound used to test the inhibition of IGS5-activity on PACAP(1-27) was the active metabolite of (3S,2′R)-3-{1-[2′-(ethoxycarbonyl)-4′-phenylbutyl]-cyclopentane-1-carbonylamino}-2,3,4,5-tetrahydro-2-oxo-1H-1-benzazepine-1-acetic acid (compound Ia-2 from WO 02/094176).
The enzymatic reaction was subsequently terminated by heating to 95° C. for 5 min. After centrifugation (Heraeus Biofuge B, 3 min) the supernatant was subjected to HPLC
(§2) In order to separate the remaining substrate from the cleavage products reversed phase HPLC technique was used with a CC 125/4 Nucleosil 300/5 C18 RP column and a CC 8/4 Nucleosil 100/5 C18 precolumn (commercially available from Macherey-Nagel, Duren, Germany). Thus, 60 μl of the reaction samples obtained in Example 7B were injected into the HPLC, and the column was eluted at a flow rate of 1 ml/min by applying the following gradient and solutions: […]
(§3) Peptides were detected by absorbance at 214 nm (UV spectroscopy) and/or by fluorescence with an excitation wavelength of 328 nm and an emission wavelength of 393 nm.
% Hydrolysis: For detection of substrate cleavage, the percentage of hydrolysis was calculated by directly comparing the substance peak areas in HPLC traces of the sample without addition of any IGS5 enzyme activity (blank) and of the samples with addition of IGS5 enzyme (sample). % hydrolysis was calculated on basis of the respective peak areas. % hydrolysis=100*(1−(Asample/Ablank))

[2] = target: T2, SEP (soluble secreted endopeptidase) (Mus musculus, UniProt Q9JLI3); conditions: 100 μl assay volume; 10 μg partially purified SEP; 0.5 μM substrate; 12 h, 37° C.; cited from earlier work
T2 sequence (Q9JLI3 1-765): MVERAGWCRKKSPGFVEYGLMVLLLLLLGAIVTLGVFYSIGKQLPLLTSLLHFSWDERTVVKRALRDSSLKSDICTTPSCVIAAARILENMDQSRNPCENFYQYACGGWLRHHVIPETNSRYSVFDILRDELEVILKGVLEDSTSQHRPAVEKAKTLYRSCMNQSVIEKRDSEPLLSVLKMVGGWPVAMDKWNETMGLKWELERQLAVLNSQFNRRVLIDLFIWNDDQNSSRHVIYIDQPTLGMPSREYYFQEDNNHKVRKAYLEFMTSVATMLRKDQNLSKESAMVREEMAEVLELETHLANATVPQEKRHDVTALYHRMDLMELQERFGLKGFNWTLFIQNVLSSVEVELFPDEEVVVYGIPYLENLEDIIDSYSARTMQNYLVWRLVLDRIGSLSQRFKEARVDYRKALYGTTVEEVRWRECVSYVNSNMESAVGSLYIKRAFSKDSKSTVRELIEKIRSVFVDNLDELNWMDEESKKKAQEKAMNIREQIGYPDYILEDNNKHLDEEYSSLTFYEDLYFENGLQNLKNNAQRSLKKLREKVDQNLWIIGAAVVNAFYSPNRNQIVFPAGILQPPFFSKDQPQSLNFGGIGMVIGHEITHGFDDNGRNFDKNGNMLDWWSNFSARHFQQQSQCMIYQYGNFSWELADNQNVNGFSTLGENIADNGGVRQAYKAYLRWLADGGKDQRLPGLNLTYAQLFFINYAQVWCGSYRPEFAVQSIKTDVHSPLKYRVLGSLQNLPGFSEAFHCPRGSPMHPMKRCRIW

[3] = target: T1, IGS5 polypeptide (His6-tagged IGS5 ectodomain); experiment: Enzyme inhibition assay: IGS5 conversion of the Big-ET-1 analogue 17 aa Big-ET (HPLC); assay type: biochemical; conditions: for Inhibition of IGS5 (result in words): conversion of Big-ET-1 analogue 17 aa Big-ET; for IC50: substrate 17 aa Big-ET, 60 min, 37° C., read-out: Inhibition of IGS5 polypeptide's activity to convert the Big-ET-1 analogue 17 aa Big-ET, IC50
Method: as §1
All test compounds were dissolved in DMSO at 10 mM and were further diluted with assay buffer.
A quantity of 70 μl, of the assay buffer, of 10 μl enzyme working solution (10 μg/ml) and of 10 μl test compound solution were mixed in an Eppendorf vial and preincubated at 37° C. for 15 minutes. Then, 10 μl substrate stock solution was added and the reaction mixture was incubated at 37° C. for 60 minutes to allow for enzymatic hydrolysis. Subsequently the enzymatic reaction was terminated by heating at 95° C. for 5 minutes. After centrifugation (Heraeus Biofuge B, 3 min) the supernatant was subjected to HPLC analysis.
as §2, §3
% Inhibition: The increasing fluorescence signal of the HPLC-peak of the peptide with the unquenched Mca-fluorophor after hydrolysis was taken as the basis for any calculation. This signal was compared for the samples with and without inhibitor and % inhibition was calculated on basis of the respective peak areas. If non labeled peptide substrates were used, basis of the calculation of % inhibition was the peak area of the remaining undegraded peptide substrate for an inhibitory test compound containing sample (inhib) in comparison to samples containing only peptide without addition of any IGS5 enzyme activity (blank) and to samples containing peptide and enzyme without inhibitor (control) according to the following equation % inhib=100*((Ainhib−Acontrol)/(Ablank−Acontrol)) All samples were run in duplicate and mean values were used. A standard inhibitor (10 nM and 100 nM Phosphoramidon) and/or a solvent control (0.1%) was added to each assay run.

[4] = 100 μl assay volume, 100 ng IGS5 polypeptide

Compound	% Hydrolysis by IGS5 Polypeptide [1, 4]	Hydrolysis by IGS5 in vitro (result in words) [1]	% Hydrolysis by SEP (Ikeda, Emoto et al., 1999) [2]	Inhibition of IGS5 (result in words) [3]	IC50 [3]	other results
CC[C@H](C)[C@@H]1NC(=O)[C@H](CCCNC(=N)N)NC(=O)[C@H](CC(=O)O)NC(=O)[C@H](CCSC)NC(=O)[C@H](CCCNC(=N)N)NC(=O)CNC(=O)CNC(=O)[C@H](Cc2ccccc2)NC(=O)[C@@H](NC(=O)[C@H](CO)NC(=O)[C@H](CO)NC(=O)[C@H](CCCNC(=N)N)NC(=O)[C@H](CCCNC(=N)N)NC(=O)[C@H](CC(C)C)NC(=O)[C@@H](N)CO)CSSC[C@@H](C(=O)N[C@@H](CC(N)=O)C(=O)N[C@@H](CO)C(=O)N[C@@H](Cc2ccccc2)C(=O)N[C@@H](CCCNC(=N)N)C(=O)N[C@@H](Cc2ccc(O)cc2)C(=O)O)NC(=O)CNC(=O)[C@H](CC(C)C)NC(=O)CNC(=O)[C@H](CO)NC(=O)[C@H](CCC(N)=O)NC(=O)[C@H](C)NC(=O)CNC1=O [ANP, atrial natriuretic peptide]	5%	hydrolyze	>95%	–	–	% Hydrolysis by IGS5 Polypeptide ([1]; 500 ng IGS5 polypeptide): 80%
O=C(O)C(Cc1ccc2c(c1)oc1ccccc12)NCP(=O)(O)O (centres unmarked) [CGS-35066]	–	–	–	not inhibited; also recorded: no inhibition	1300 nM	–
CC[C@H](C)[C@H](NC(=O)[C@H](CC(=O)O)NC(=O)[C@H](CC(C)C)NC(=O)[C@H](Cc1c[nH]cn1)NC(=O)[C@@H]1CSSC[C@H](N)C(=O)N[C@@H](CO)C(=O)N[C@H]2CSSC[C@H](NC(=O)[C@H](CCC(=O)O)NC(=O)[C@H](CCCCN)NC(=O)[C@H](CC(=O)O)NC(=O)[C@H](CCSC)NC(=O)[C@H](CC(C)C)NC(=O)[C@H](CO)NC(=O)[C@H](CO)NC2=O)C(=O)N[C@@H](C(C)C)C(=O)N[C@@H](Cc2ccc(O)cc2)C(=O)N[C@@H](Cc2ccccc2)C(=O)N1)C(=O)N[C@H](C(=O)N[C@@H](Cc1c[nH]c2ccccc12)C(=O)O)[C@@H](C)CC [ET-1, endothelin]	<30%	hydrolyze	92%	–	–	–
CC(C)C[C@H](NP(=O)(O)O[C@@H]1O[C@@H](C)[C@H](O)[C@@H](O)[C@H]1O)C(=O)N[C@@H](Cc1c[nH]c2ccccc12)C(=O)O [Phosphoramidon]	–	–	–	inhibited; also recorded: inhibition	18 nM	–
O=C(O)CNC(=O)C(CS)Cc1ccccc1 (centres unmarked) [Thiorphan]	–	–	–	not efficiently inhibited; also recorded: no inhibition	> 1000 nM	–
Mca-Asp-Ile-Ala-Trp-Phe-Dpa-Thr-Pro-Glu-His-Val-Val-Pro-Tyr-Gly-Leu-Gly-COOH (Mca-DIAWF[Dpa]TPEHVVPYGLG-OH; SMILES CC[C@H](C)[C@H](NC(=O)[C@H](CC(=O)O)NC(=O)Cc1cc(=O)oc2cc(OC)ccc12)C(=O)N[C@@H](C)C(=O)N[C@@H](Cc1c[nH]c2ccccc12)C(=O)N[C@@H](Cc1ccccc1)C(=O)N[C@@H](CNc1ccc([N+](=O)[O-])cc1[N+](=O)[O-])C(=O)N[C@H](C(=O)N1CCC[C@H]1C(=O)N[C@@H](CCC(=O)O)C(=O)N[C@@H](Cc1c[nH]cn1)C(=O)N[C@H](C(=O)N[C@H](C(=O)N1CCC[C@H]1C(=O)N[C@@H](Cc1ccc(O)cc1)C(=O)NCC(=O)N[C@@H](CC(C)C)C(=O)NCC(=O)O)C(C)C)C(C)C)[C@@H](C)O) [17 aa Big ET 1]	41%	–	–	–	–	–
RPPGFSPFR [Bradykinin, bradykinin]	100%	–	–	–	–	% Hydrolysis by IGS5 Polypeptide ([1]; 10 ng IGS5 polypeptide): 62%
angiotensin-1 (DRVYIHPFHL) [Angiotensin 1]	15*** %	–	>95%	–	–	Formation of angiotensin II on degradation by IGS5 [1]: ***degradation of angiotensin I does not result in formation of angiotensin II
big endothelin (CSCSSLMDKECVYFCHLDIIWVNTPEHVVPYGLGSPRS) [Big ET-1]	–	hydrolyze	42%	–	–	–
substance P	100%	–	>95%	–	–	–
